Patent US20240252654A1, “IMPROVED SMALL MOLECULES” (University of Dundee, priority 2020, published 2024)
Values belong to the compound of their own block, whether it stands above or below them.

Experiments:
BRD2, BRD3 and BRD4 = assay: Immunoblot degradation of BET proteins in HEK293 cells; format: cell-based, human
Experimental: To evaluate the ability of trivalent compounds to induce intracellular degradation of BET proteins, the inventors first treated human HEK293 cells for 4 hours at 1 μM concentration and assessed levels of BRD2, BRD3 and BRD4 by western blot. […] To confirm the greater activity of VHL-based compounds compared to CRBN-based PROTACs they next used live cell continual luminescent monitoring of CRISPR/Cas9 endogenously tagged HiBiT-BRD4 in HEK293 cells over 24 h^29,31. […] To confirm greater potency of VHL-based compounds, the inventors evaluated growth inhibition profiles of BET-sensitive cancer cell lines MV4; 11 (FIG. 1f), A549 and HL-60 (FIG. 6c) with compound treatments. […] Together, the initial screens support greater activity of structure-guided designed VHL degraders over their homologous CRBN molecules.
(§1) Degradation assays. MV4; 11 cells were seeded at 1×10^6 cells/mL of 10 cm dishes 12-24 h before treatment. 22Rv1 and HEK293 cells were seeded at 2.5-6×10^5 cells/well of 6 well plates 12-24 h before treatment. Cells were treated with test compounds with and without inhibitors as indicated or an equivalent volume of DMSO and lysed at the stated time point. For lysis, cells were washed twice in ice cold PBS (Invitrogen) then lysed in 250 μL/plate for MV4; 11 cells or 80 μL/well for 22Rv1 and HEK293 cells of ice cold lysis buffer containing 50 mM Tris hydrochloride pH 7.4, 150 mM sodium chloride, 1 mM EDTA pH 7.4, 1% v/v Triton X-100, 1×Halt™ Protease Inhibitor Cocktail (ThermoFisher). Lysates were sonicated, cleared by centrifugation at 4° C., at 15800×g for 10 mins and the supernatants stored at −80° C. Protein concentration was determined by BCA assay (Pierce) and the absorbance at 562 nm measured by spectrophotometry (NanoDrop ND1000). […] Bands were detected using a ChemiDoc MP imaging system (BioRad) and quantified (Image Studio Lite, version 5.2) with normalisation to β-actin and the DMSO control per time point. […]

[1] = test system: HiBiT-BRD2, BRD3, and BRD4; assay: Degradation washout experiment, CRISPR HiBiT-BET HEK293 cells; format: cell-based, human; details: 100 nM for 3.5 h then washout, monitored 50 h
Experimental: Media containing the 10 nM and/or 100 nM compounds was removed at 3.5 h, indicated on the graphs, and replaced with media lacking compounds for the remainder of the experiment. Luminescence (RLU) was continuously monitored over a 50 h time period and is plotted normalized to the DMSO control as Fractional RLU.
To assess whether the trivalent PROTAC induced also a more sustained degradation of BET proteins in cells compared to MZ1 or (R,S)-SIM1, degradation washout experiments were performed. CRISPR HiBiT-BET HEK293 cells were treated with equivalent concentration (100 nM) of SIM1, (R,S)-SIM1 and MZ1 compounds for 3.5 h, then media was removed and replaced with media lacking compounds. […] The HiBiT-BET protein levels were continuously monitored from the initial addition of the compounds and immediately after the wash for a total time of 50 h.

22Rv1 cells [2] = assay: PARP cleavage immunoblot in 22Rv1 cells; format: cell-based; details: 22Rv1, 10 nM, 24 h (MT1, MZ1 up to 48 h)
Experimental: Next, the inventors assessed the functional effects of SIM1 on the viability of 22Rv1 cancer cells. […] Cells died of apoptosis as indicated by prevented cleavage of PARP upon co-treatment with QVD-OPh, a pan-caspase inhibitor, and not of necroptosis, as shown by co-treatment with Necrostatin-1 (FIG. 3d and FIG. 10a).
as §1, with “Lysates were sonicated, cleared by centrifugation at 4° C., at 15800×g for 10 mins and the supernatants stored at −80° C.” left out

22Rv1 cells [3] = assay: Caspase-Glo 3/7 assay; format: cell-based; details: 22Rv1, 24 h
Experimental: Caspase-Glo® 3/7 assays. 22Rv1 cells were seeded at 10,000 cells/well of white 96 well plates (Corning #3917) 12-24 h before treatment with test compounds with and without inhibitors or an equivalent volume of DMSO for 24 h. 100 μL/well of Caspase-Glo@ 3/7 Reagent (Promega) was added and the plate shaken at 500 rpm for 30 seconds. The plate was incubated for 2 h and luminescence measured using a PHERAstar FS plate reader (BMG Labtech).

HiBiT-BRD4 [4] = target: T1, HiBiT-BRD4 (Homo sapiens, UniProt O60885); assay: NanoBRET target engagement, permeabilized and live cells; format: cell-based; details: for IC80: live cell format, unit given with each value, read-out: IC80 for tracer displacement
T1 construct: endogenously HiBiT tag the N-terminal genomic loci of BRD2, BRD3, or BRD4; endogenous in cells; host or cells: HEK293 stably expressing LgBiT, CRISPR/Cas9 edited
Experimental: Cells were treated with a fluorescent BET tracer, then incubated with the indicated compounds at various concentrations to measure competitive displacement.
(§2) NanoBRET Target Engagement and Residence Time. For target engagement experiments in live and permeabilized cells, CRISPR HiBiT-BRD4 HEK293 cells stably expressing LgBiT were plated into white 96-well tissue culture plates at a density of 2×10^4 cells/well. Cells were equilibrated for 1 h with energy transfer probes and the indicated test compound prior to NanoBRET measurements. NanoBRET tracers were prepared at a working concentration of 20× in tracer dilution buffer (12.5 mM HEPES, 31.25% PEG-400, pH 7.5). NanoBRET BRD Tracer-02 was added to cells at a final concentration of 0.5 μM. To measure NanoBRET in live cells, NanoBRET NanoGlo Substrate and Extracellular NanoLuc Inhibitor (Promega) were added according to the manufacturer's recommended protocol, and filtered luminescence was measured on a GloMax Discover luminometer equipped with 450 nm BP filter (donor) and 600 nm LP filter (acceptor) using 0.3 s integration time. To measure NanoBRET in permeabilized cells, digitonin was added to the cells to a final concentration of 50 μg/mL and Extracellular NIuc inhibitor was omitted during the detection step. […] Cells were incubated in 15 mL conical tubes with caps loosened in a tissue culture incubator for 1 h. Following incubation, cells were spun at 300×g for 5 min, washed once with Opti-MEM, spun a second time at 300×g for 5 min, then resuspended with fresh Opti-MEM before plating at 2×10^4 cells/well. NanoBRET BRD Tracer-02 was added at a final concentration of 0.5 μM cells and kinetic NanoBRET measurements were collected on a GloMax Discover. NanoBRET ratios were expressed in milliBRET units and calculated according to the equation in the NanoBRET Ubiquitination, Ternary Complex and Biosensor Experiments section.

HiBiT-BRD4 [5] = target: T1, HiBiT-BRD4; assay: NanoBRET live cell residence time; format: cell-based; details: live cells
Experimental: as §2

MV4; 11 cells = assay: Correlative cell viability in cMyc-HiBiT MV4;11 cells (CellTiter-Glo); format: cell-based; details: 1 nM, after 6 h
Experimental: Monitoring cMyc Loss and Cell Viability in MV4; 11 Cells. CRISPR cMyc-HiBiT MV4; 11 cells (Promega) were plated at a density of 5×10^4 cells per well in solid, white 96-well tissue culture plates (Corning Costar #3917). Following an overnight incubation, they were treated with 1-100 nM concentration of the indicated compounds and at the plotted time points, cMyc levels were determined using luminescent measurement with NanoGlo HiBiT lytic reagent (Promega). Replicate plate of all compound treatments were prepared and at identical timepoints as the protein level measurements, cell viability was measured using Cell-Titer Glo (Promega). Plates were shaken on an orbital shaker for 10-20 min before reading luminescence on a GloMax Discover Microplate Reader (Promega).

[6] = test system: VHL and full-length BRD4 WT, N140F, or N433F; assay: Kinetic NanoBRET ternary complex assay, NanoLuc-BRD4 with HaloTag-VHL; format: cell-based, human
Experimental: NanoBRET Ubiquitination, Ternary Complex, and Biosensor Experiments. For endogenous live cell BET:Ubiquitin and BET:VHL assays, CRISPR HiBiT-BRD2, HiBiT-BRD3, and HiBiT-BRD4 HEK293 cells stably expressing LgBiT were transfected with 2 μg of HaloTag-UBB or HaloTag-VHL vectors in 6-well plates using FuGENE HD (Promega). For full transient NanoBRET experiments with NanoLuc-BRD4 WT, N433F, or N140F mutants, HEK293 cells (8×10^5) were co-transfected with 0.02 μg NanoLuc-BRD4 and 2 μg of HaloTag-VHL vectors. For transient NanoBRET experiments with the BRD4 NL-BD1-BD2-HT biosensor containing either the WT tandem BD1-BD2 domain (AA 44-460) or containing the N433F mutation, HEK293 cells (8×10^5) were transfected with 0.02 μg biosensor plasmid and 2 μg carrier DNA. […] NanoBRET NanoGlo (Promega) substrate was added and BRET was measured two hours post-compound treatment using a GloMax Discover Microplate Reader (Promega). Dual filtered luminescence was collected with a 460/80 nm bandpass filter and a 610 nm long pass filter (acceptor, HaloTag NanoBRET ligand) using an integration time of 0.5 s. For all NanoBRET experiments, background subtracted NanoBRET ratios expressed in milliBRET units were calculated from the equation: […]

Structure (SMILES): Cc1ncsc1-c1ccc(CNC(=O)[C@@H]2C[C@@H](O)CN2C(=O)[C@@H](NC(=O)COCCOCCOCCNC(=O)C[C@@H]2N=C(c3ccc(Cl)cc3)c3c(sc(C)c3C)-n3c(C)nnc32)C(C)(C)C)cc1 [MZ1]
preference of degradation among BET proteins (BRD2, BRD3 and BRD4; immunoblot, 4 h): […] | DC50 (BRD2, BRD3 and BRD4; immunoblot, 4 h treatment, across all the BET proteins): […] | BET protein level after washout [1]: greater and occurred faster than those observed with SIM1 | PARP cleavage / cell death (22Rv1 cells [2]): did not cause observable PARP cleavage | EC50 (22Rv1 cells [3]): 150 nM | IC80 (HiBiT-BRD4 [4]): 10000 nM | residence time on BRD4 (HiBiT-BRD4 [5]): residence time between the monovalent and bivalent BET inhibitors

Structure (SMILES): Cc1ncsc1-c1ccc(CNC(=O)[C@@H]2C[C@@H](O)CN2C(=O)[C@@H](NC(=O)COCC(C)(COCCOCCOCCNC(=O)C[C@@H]2N=C(c3ccc(Cl)cc3)c3c(sc(C)c3C)-n3c(C)nnc32)COCCOCCOCCNC(=O)C[C@H]2N=C(c3ccc(Cl)cc3)c3c(sc(C)c3C)-n3c(C)nnc32)C(C)(C)C)cc1 (stereo partly drawn) [(R,S)-SIM1]
degradation of BRD2, BRD3 and BRD4 by western blot (BRD2, BRD3 and BRD4; HEK293 cells, 1 μM, 4 h): behave similarly to MZ1 and less potently than SIM1 | BET protein level after washout [1]: greater and occurred faster than those observed with SIM1

cell permeability (HiBiT-BRD4 [4]; inferred from live versus permeabilized cells): readily cell-permeable | IC80 (HiBiT-BRD4 [4]): 100 nM | shift of binding affinity to BRD4 compared to MT1 (HiBiT-BRD4 [4]; live cells): 10 × | residence time on BRD4 (HiBiT-BRD4 [5]): identical displacement kinetics as MT1
Structure (SMILES): Cc1ncsc1-c1ccc(CNC(=O)[C@@H]2C[C@H](O)CN2C(=O)[C@@H](NC(=O)COCC(C)(COCCOCCOCCNC(=O)C[C@@H]2N=C(c3ccc(Cl)cc3)c3c(sc(C)c3C)-n3c(C)nnc32)COCCOCCOCCNC(=O)C[C@@H]2N=C(c3ccc(Cl)cc3)c3c(sc(C)c3C)-n3c(C)nnc32)C(C)(C)C)cc1 [cis-SIM1, N,N′-(11-((2-(((S)-1-((2S,4S)-4-hydroxy-2-((4-(4-methylthiazol-5-yl)benzyl)carbamoyl)pyrrolidin-1-yl)-3,3-dimethyl-1-oxobutan-2-yl)amino)-2-oxoethoxy)methyl)-11-methyl-3,6,9,13,16,19-hexaoxahenicosane-1,21-diyl)bis(2-((S)-4-(4-chlorophenyl)-2,3,9-trimethyl-6H-thieno[3,2-f][1,2,4]triazolo[4,3-a][1,4]diazepin-6-yl)acetamide)]
measurable cellular death (MV4; 11 cells): not | binding to endogenous HiBiT-BRD4 (HiBiT-BRD4 [4]; permeabilized cells): near-identical binding affinities and IC50 values | ternary complex formation [6]: not

EC50 (22Rv1 cells [3]): 90 nM
Structure (SMILES): Cc1ncsc1-c1ccc([C@H](C)NC(=O)[C@@H]2C[C@@H](O)CN2C(=O)[C@@H](NC(=O)COCCCOCCNC(=O)C[C@@H]2N=C(c3ccc(Cl)cc3)c3c(sc(C)c3C)-n3c(C)nnc32)C(C)(C)C)cc1 [ARV-771]
